Legend:
[1] = molecular target: T1, Alpha-2A adrenergic receptor (Homo sapiens, UniProt P08913); assay type: functional, cell-based
T1 sequence (P08913 whole entry): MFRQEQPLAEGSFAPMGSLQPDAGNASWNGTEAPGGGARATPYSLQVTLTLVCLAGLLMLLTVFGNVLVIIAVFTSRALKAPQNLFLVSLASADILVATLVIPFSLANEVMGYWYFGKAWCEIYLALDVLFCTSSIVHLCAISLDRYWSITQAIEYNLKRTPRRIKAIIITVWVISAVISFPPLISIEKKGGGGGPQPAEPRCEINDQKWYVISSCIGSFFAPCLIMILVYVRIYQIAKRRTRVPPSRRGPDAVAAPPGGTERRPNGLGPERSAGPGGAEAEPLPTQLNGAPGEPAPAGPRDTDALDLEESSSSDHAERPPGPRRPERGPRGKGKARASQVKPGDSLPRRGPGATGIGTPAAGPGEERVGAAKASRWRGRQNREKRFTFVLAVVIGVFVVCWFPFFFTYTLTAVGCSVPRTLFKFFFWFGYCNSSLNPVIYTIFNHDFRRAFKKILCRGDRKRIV

[2] = molecular target: T2, Equilibrative nucleoside transporter 1 (Homo sapiens, UniProt Q99808)
T2 sequence (Q99808 whole entry): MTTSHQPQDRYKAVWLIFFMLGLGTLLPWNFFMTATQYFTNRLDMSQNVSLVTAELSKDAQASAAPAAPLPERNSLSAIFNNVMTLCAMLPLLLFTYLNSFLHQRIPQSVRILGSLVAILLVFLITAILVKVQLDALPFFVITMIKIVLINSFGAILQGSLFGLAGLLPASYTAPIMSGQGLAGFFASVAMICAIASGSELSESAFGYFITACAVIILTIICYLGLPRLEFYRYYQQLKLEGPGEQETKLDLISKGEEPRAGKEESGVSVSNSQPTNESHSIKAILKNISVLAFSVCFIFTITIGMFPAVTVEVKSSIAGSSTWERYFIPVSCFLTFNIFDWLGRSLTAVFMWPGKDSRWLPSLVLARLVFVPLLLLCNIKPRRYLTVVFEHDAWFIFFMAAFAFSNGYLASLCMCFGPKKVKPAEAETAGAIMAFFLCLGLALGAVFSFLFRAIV

[3] = molecular target: T3, Amine oxidase [flavin-containing] A (Homo sapiens, UniProt P21397); assay type: functional
T3 sequence (P21397 whole entry): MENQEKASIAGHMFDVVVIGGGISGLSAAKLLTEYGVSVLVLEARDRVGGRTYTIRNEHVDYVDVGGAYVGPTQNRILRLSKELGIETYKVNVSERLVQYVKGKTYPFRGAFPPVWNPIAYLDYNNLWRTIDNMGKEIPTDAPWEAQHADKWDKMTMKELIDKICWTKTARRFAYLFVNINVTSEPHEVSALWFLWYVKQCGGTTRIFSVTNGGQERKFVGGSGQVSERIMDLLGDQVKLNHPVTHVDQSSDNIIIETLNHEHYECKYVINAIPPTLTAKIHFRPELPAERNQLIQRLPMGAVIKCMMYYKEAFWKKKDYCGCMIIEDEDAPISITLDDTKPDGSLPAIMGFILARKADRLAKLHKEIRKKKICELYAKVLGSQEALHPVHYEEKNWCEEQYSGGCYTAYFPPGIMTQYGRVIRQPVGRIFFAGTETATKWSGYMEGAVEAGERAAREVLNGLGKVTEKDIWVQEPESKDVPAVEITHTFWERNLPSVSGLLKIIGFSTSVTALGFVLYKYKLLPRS

Thromboxane A2 receptor = molecular target: T4, Thromboxane A2 receptor (Homo sapiens, UniProt P21731)
T4 sequence (P21731 whole entry): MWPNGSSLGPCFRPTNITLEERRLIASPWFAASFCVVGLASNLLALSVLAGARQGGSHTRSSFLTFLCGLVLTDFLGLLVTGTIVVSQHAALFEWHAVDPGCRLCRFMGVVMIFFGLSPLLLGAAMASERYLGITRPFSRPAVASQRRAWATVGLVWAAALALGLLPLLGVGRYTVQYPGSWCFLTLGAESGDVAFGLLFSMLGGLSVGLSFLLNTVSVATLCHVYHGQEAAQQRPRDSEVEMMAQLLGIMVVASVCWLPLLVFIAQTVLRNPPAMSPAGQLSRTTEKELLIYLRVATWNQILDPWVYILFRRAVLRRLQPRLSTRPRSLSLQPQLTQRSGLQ

Histamine H2 receptor = Histamine H2 receptor (Homo sapiens, UniProt P25021); assay type: functional, cell-based
Chain of Histamine H2 receptor (P25021 whole entry): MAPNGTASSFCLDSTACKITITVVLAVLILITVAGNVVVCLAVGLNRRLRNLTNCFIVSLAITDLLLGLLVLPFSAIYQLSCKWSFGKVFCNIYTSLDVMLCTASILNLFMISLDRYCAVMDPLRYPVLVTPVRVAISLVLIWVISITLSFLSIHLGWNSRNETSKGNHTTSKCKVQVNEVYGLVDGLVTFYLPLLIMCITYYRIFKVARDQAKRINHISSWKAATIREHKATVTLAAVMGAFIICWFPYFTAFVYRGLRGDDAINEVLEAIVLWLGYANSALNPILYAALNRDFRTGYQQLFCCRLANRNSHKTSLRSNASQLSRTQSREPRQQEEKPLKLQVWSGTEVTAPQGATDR

Cannabinoid receptor 1 = Cannabinoid receptor 1 (Homo sapiens, UniProt P21554); assay type: functional, cell-based
Chain of Cannabinoid receptor 1 (P21554 whole entry): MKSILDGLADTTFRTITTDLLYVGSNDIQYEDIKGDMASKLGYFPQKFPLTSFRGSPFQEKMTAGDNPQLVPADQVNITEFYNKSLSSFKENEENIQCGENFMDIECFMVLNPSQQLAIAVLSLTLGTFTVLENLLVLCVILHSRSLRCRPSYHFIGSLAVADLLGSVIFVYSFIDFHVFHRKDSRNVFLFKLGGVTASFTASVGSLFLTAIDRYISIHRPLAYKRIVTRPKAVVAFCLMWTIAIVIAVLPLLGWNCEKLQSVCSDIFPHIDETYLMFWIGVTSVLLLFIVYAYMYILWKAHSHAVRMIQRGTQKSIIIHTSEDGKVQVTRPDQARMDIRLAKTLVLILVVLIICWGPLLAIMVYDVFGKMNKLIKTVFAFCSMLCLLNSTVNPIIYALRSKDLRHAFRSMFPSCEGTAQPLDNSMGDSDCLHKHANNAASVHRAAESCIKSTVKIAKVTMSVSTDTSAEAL

B2 bradykinin receptor = molecular target: T5, B2 bradykinin receptor (Homo sapiens, UniProt P30411)
T5 sequence (P30411 whole entry): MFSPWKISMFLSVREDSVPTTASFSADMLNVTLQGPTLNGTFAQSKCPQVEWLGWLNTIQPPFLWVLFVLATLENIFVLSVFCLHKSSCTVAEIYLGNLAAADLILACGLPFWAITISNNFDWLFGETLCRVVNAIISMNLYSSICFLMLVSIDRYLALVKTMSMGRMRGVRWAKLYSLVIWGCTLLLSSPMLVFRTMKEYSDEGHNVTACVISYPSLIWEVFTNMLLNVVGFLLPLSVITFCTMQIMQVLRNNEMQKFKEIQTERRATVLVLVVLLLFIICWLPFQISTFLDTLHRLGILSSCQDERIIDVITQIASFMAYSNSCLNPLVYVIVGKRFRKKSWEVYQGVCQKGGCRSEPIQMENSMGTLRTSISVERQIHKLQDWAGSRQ

Histamine H3 receptor = Histamine H3 receptor (Homo sapiens, UniProt Q9Y5N1)
Chain of Histamine H3 receptor (Q9Y5N1 whole entry): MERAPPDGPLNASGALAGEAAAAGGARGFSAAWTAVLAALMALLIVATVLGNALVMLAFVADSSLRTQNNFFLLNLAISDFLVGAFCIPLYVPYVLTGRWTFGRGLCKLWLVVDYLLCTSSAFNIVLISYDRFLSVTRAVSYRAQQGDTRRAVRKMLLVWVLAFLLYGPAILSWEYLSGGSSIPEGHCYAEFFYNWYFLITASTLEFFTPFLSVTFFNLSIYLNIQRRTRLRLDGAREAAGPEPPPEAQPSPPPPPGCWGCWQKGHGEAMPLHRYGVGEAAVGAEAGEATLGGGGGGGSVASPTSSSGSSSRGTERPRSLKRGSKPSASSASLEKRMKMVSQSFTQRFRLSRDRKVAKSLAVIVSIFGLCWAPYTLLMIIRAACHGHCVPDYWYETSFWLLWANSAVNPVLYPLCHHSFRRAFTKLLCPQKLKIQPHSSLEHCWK

[4] = molecular target: T6, 5-hydroxytryptamine receptor 1A (Homo sapiens, UniProt P08908); assay type: functional, cell-based
T6 sequence (P08908 whole entry): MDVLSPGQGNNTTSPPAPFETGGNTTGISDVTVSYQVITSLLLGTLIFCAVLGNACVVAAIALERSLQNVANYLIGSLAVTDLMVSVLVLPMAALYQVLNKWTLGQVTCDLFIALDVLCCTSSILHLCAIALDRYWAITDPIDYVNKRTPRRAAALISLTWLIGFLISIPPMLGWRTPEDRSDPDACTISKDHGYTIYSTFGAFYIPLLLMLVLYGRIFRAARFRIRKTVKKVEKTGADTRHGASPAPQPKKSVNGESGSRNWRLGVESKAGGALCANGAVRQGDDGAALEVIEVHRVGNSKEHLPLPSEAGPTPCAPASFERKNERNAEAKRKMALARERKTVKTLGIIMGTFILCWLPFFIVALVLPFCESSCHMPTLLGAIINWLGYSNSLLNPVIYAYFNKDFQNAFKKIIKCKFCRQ

[5] = molecular target: T6, 5-hydroxytryptamine receptor 1A; assay type: functional, cell-based; remark: listed apart in the source
Further: assay procedure not described here.

| AC50 [1] [µM] | AC50 [2] [µM] | AC50 [3] [µM] | AC50 (Thromboxane A2 receptor) [µM] | AC50 (Histamine H2 receptor) [µM] | AC50 (Cannabinoid receptor 1) [µM] | AC50 (B2 bradykinin receptor) [µM] | AC50 (Histamine H3 receptor) [µM] | AC50 [4] [µM] | AC50 [5] [µM] | Compound |
| --- | --- | --- | --- | --- | --- | --- | --- | --- | --- | --- |
| > 30 | > 30 | > 30 | > 30 | > 30 | > 30 | > 30 |  |  |  | CNS(=O)(=O)Cc1ccc2[nH]cc(CCN(C)C)c2c1 |
| > 10 | > 10 | > 10 | > 10 | > 10 | > 30 | > 10 | > 10 | > 10 |  | CC=CC(=O)N(CC)c1ccccc1C |
| > 10 | > 10 | > 10 | > 10 | > 10 |  | > 10 |  | > 10 | > 10 | NCC[C@H](O)C(=O)N[C@@H]1C[C@H](N)[C@@H](O[C@H]2O[C@H](CN)[C@@H](O)[C@H](O)[C@H]2O)[C@H](O)[C@H]1O[C@H]1O[C@H](CO)[C@@H](O)[C@H](N)[C@H]1O [AMIKACIN] |
| > 10 | > 10 | > 10 | > 10 | > 10 | > 30 | > 10 | > 10 | > 10 |  | CC(C[N+](C)(C)C)OC(N)=O (configuration not stated) [BETHANECHOL] |
| > 10 | > 10 | > 10 | > 10 | > 10 |  | > 10 | > 10 | > 10 | > 10 | C#C[C@]1(O)CC[C@H]2[C@@H]3CCC4=Cc5oncc5C[C@]4(C)[C@H]3CC[C@@]21C [DANAZOL] |
| > 10 | > 10 | > 10 | > 10 | > 10 |  | > 10 |  | > 10 | > 10 | CC1(C)O[C@@H]2C[C@H]3[C@@H]4CCC5=CC(=O)C=C[C@]5(C)[C@H]4[C@@H](O)C[C@]3(C)[C@]2(C(=O)CO)O1 [DESONIDE] |
|  | 3.6 | > 30 | > 30 |  |  | > 30 | > 10 |  |  | CCc1c(Cl)c(O)c(Cl)c(O)c1C(=O)O[C@H]1[C@H](O)[C@H](OC)[C@H](OC/C2=C\C=C\C[C@H](O)/C(C)=C/[C@H](CC)[C@@H](O[C@@H]3OC(C)(C)[C@@H](OC(=O)C(C)C)[C@H](O)[C@@H]3O)/C(C)=C/C(C)=C/C[C@@H]([C@@H](C)O)OC2=O)O[C@@H]1C [FIDAXOMICIN] |
| > 10 | > 10 | > 10 | > 10 | > 10 |  | > 10 |  | > 10 | > 10 | CCCC(=O)O[C@]1(C(=O)CO)CC[C@H]2[C@@H]3CCC4=CC(=O)CC[C@]4(C)[C@H]3[C@@H](O)C[C@@]21C [HYDROCORTISONE BUTYRATE] |
| > 10 | > 30 | > 10 | > 30 | > 10 |  | > 10 | > 10 | > 10 | > 10 | CC(C)Cn1cnc2c(N)nc3ccccc3c21 [IMIQUIMOD] |

— ChEMBL document CHEMBL5291721, “A preclinical secondary pharmacology resource illuminates target-adverse drug reaction associations of marketed drugs” (Nat Commun, 2023)
